The source of these data is paper PMC5662717, “Angiotensin II-derived constrained peptides with antiplasmodial activity and suppressed vasoconstriction” (Scientific Reports, 2017).

Series [1] has as its system Plasmodium falciparum. The following applies: ref 12 (Silva et al.); cited from earlier work. The source says: Table 1 Design of angiotensin II-derived synthetic peptides. Purity of peptides determined by LC/MS is shown, along with their respective antiplasmodial activity and design rationale. | column: Antiplasmodial activity vs P. falciparum (new ring formation%) || Silva et al.[12], tested several linear Ang II derivative peptides in vitro using both the P. gallinaceum sporozoite and the P. falciparum blood stage models. Two short peptides presented high antiplasmodial activity: YHPF and VIPF presented 89% and 94% activity against P. gallinaceum, respectively, and ~50% activity against erythrocyte invasion by P. falciparum. […] The authors observed that Ang II reduced by 47% reinfection caused by ring forms. Silva and colleagues tested linear Ang II derivatives using the same model and observed that two short peptides were capable of reducing parasite reinfection >50%[12]. In this work, we tested designer peptides using the P. falciparum erythrocytic cycle and observed that two peptides (1 and 2) were able to reduce ... || (+ 1 further places)

The subject of series [2] is Plasmodium gallinaceum sporozoites. The following applies: cited from earlier work; for Antiplasmodial activity against P. gallinaceum sporozoites, linear peptides: ref 12 (Silva et al.). The source says: Silva et al.[12], tested several linear Ang II derivative peptides in vitro using both the P. gallinaceum sporozoite and the P. falciparum blood stage models. Two short peptides presented high antiplasmodial activity: YHPF and VIPF presented 89% and 94% activity against P. gallinaceum, respectively, and ~50% activity against erythrocyte invasion by P. falciparum. […] Analog 4 was designed via the removal of these two residues. Silva et al., studied linear peptides and observed that peptide DRVYHIPF had potent biological activity (94% against P. gallinaceum sporozoites). The sequence of peptide 1 is similar to that of Ang II, whereas peptide 2 presents a sequence that resembles Ang II with modifications in His and Ile residues (DRVYHIPF). Peptide 4, on the other hand, lacks Ile and His amino acid residues within its backbone. […] Peptide sequence CDRVCYIHPF[7] presented 76% (±3) antiplasmodial activity vs sporozoites of P. gallinaceum. Silva et al., studied different linear Ang II derivative peptides[12] and observed that when His and Ile residues are inverted, the antiplasmodial activity increased cf. peptides with the native primary sequence. To verify this observation, here we inverted the position of Ile and His residues in peptide 3. The resulting peptide presented increased antiplasmodial ...

The next series concerns Plasmodium. The following applies: cited from earlier work; for Antiplasmodial activity relative to Ang II (in words): lactam bridge analogs, ref 6 (Torres et al.); for Biological activity (antiplasmodial): ref 4 (Maciel et al.). The source says: Three of these analogs (i.e., EDRKVYI ...
For series [3], the system named is Plasmodium falciparum. The series can be described thus: Erythrocytic invasion assay (new ring formation) and IC50 determination. The settings on record: 10^−8 mol L^−1 peptide, 24 h, W2 strain, 2–3% parasitemia, 5% hematocrit; reduction versus untreated control, normalized. It is filed as cell-based. On the procedure:
The effect of peptides in the P. falciparum erythrocytic cycle was assayed in vitro against a synchronized culture in the schizont form of P. falciparum, maintaining 5% hematocrit and 2% parasitemia. Twenty-four hours after treatment, all peptides reduced new ring formation within erythrocytes at 10^−8 mol L^−1, which was described by Saraiva et al. as the ideal concentration for these inhibition assays. The tests were carried out in duplicate and a total of ten experiments were performed (n = 10). Data were normalized due to differences between controls from each assay. It was observed that three analogs reduced the number of rings formed in the blood stage, but only analogs 1 and 2 presented inhibition >40%, when compared to the untreated controls (Fig. 2B).
The erythrocytic cycle of Plasmodium falciparum was maintained in vitro by culturing W2 strains in 1640 medium, supplemented with A-type human blood and serum, as described by Saraiva et al.[15] […]
To synchronize the parasite cultures into the ring stage, we used a sorbitol solution (5%) according to Lambros and Vanderberg[28]. […] Invasion was evaluated by the appearance of new ring forms. The invasion percentage was determined by optical microscopy (1000x magnification), which represents the total number of cells infected by rings in 100 erythrocytes in at least ten random microscopic fields. […]

Series [4] relates to Plasmodium gallinaceum sporozoites. Kind of series: Effect of peptides on salivary gland-derived sporozoites (membrane permeability, propidium iodide fluorescence microscopy). It is filed as cell-based. The settings on record: digitonin 40 μmol L–1 in PBS. On the procedure: The effect of the peptides on sporozoites was determined in vitro by fluorescence microscopy. Briefly, the parasites were incubated for one hour in the presence of each peptide and the fluorophore propidium iodide, which stains dead and dying cells. The results are reported as the percent of fluorescent (i.e., inactivated) sporozoites. The analyses were carried out in triplicate, using three different mosquito batches (n = 9).
Aedes aegypti RED strain was used in experiments due to their hypersensitivity to P. gallinaceum parasite. Mosquitoes were reared using standard laboratory procedures. An aliquot of frozen chicken blood infected with the P. gallinaceum strain 8 A was obtained from A Krettli (René Rachou Institute of Research, FIOCRUZ, MG, Brazil). […]
Nine thousand P. gallinaceum mature sporozoites were pulled from the salivary glands of A. aegypti and incubated in 50 μL of PBS solution, with 40 μmol L^–1 digitonin (positive control), 60 μmol L^–1 peptides or negative control (PBS solution), at 37 °C for one hour. Cell membrane integrity was then observed using a Carl Zeiss inverted fluorescence microscope (model Observer Axio Vision A.1) coupled to an image capture Zeiss AxioCam HR digital camera (1,300 × 1,030 pixels resolution and 8-bit quantization) after addition of 1 μL of the propidium iodide aqueous solution (200 μmol L^–1) in 5 μL of total solution volume. […]

The test system of the next series is human red blood cells. It is filed as cell-based. The settings on record: for Hemolysis of red blood cells: red cells of human, 24 h, 1e-8 mol L^−1. On the procedure:
Assessing toxicity is a key requirement for translating novel compounds into the clinic. Therefore, we evaluated the hemolytic activity of Ang II peptide derivatives 1 and 2 towards erythrocyte human cells. Erythrocytes were seeded in 96-well plates in the absence (negative control) or presence of 10^−8 mol L^−1 of the analogs, as described in the Methods Section.
Figure 3 Hemolytic assay of human red blood cells. Red blood cells were treated with distilled water which causes lysis of red blood cells; uninfected erythrocytes were kept in the same conditions used in the invasion assay with a control and each peptide tested (10^−8 mol L^−1), at 37 °C for 24 h. After incubation, the supernatant was collected, clarified at 900 g/8 min and the hemoglobin content was detected in a spectrophotometer at […]. **** denotes statistical significance of group compared with distilled water value p < 0.05.
The hemolytic effect of analogs 1 and 2 was determined in uninfected erythrocytes. Cells were maintained in the same culture conditions in the presence of 10^−8 mol L^−1 of peptides for 24 h. Erythrocytes were centrifuged at 900 g for 8 min. The free hemoglobin in the supernatant was monitored by spectrophotometer at 550 nm. Untreated cells were used as negative control to rule out nonspecific hemolysis. The hemolytic activity was expressed as a percentage of the control. This positive control (100% hemolysis) was prepared by treating the erythrocytes with distilled water.

The next series concerns stomach fundus. Further details: species or system C57BL/6 J mice. The settings on record: pH 7.4. The method, then: The bioassay experiment was carried out in duplicate and generated equivalent results. Experiments were carried out using C57BL/6 J mice from the Centro de Desenvolvimento de Modelos Experimentais da Universidade Federal de São Paulo (CEDEME-UNIFESP).
Stomach fundus was isolated from each mouse, divided into two strips along the longitudinal muscle, and mounted into 5 mL organ baths containing modified Krebs-Ringer solution [144 mmol L^–1 NaCl, 5 mmol L^–1 KCl, 1.1 mmol L^–1 MgSO4, 25 mmol L^–1 NaHCO3, 1.1 mmol L^–1 NaH2PO4, 1.25 mmol L^–1 CaCl2, and 5.5 mmol L^–1 glucose at 37 °C (pH 7.4)] and were continuously carboxygenated (95% O2/5% CO2)[29]. Contractile responses to the stimulations with Ang II and analogs 1 and 2 (10^–8 mol L^–1) were measured with a TRI201 tension transducer (PanLab) through an amplifier (Powerlab 4/30). Data were collected through Labchart Pro V7 software. The resting tension was maintained at 0.5 g and the tissues were left to equilibrate for 90 min. The bath solution was frequently changed. The maximal effect was obtained by comparing contractile responses induced by carbachol (10^–8 mol L^–1).

Where a SMILES comes first, the peptide text is derived from it. Bridges are numbered along the chain shown (N, C = ends). Where no end group is shown, it is not given here.

In the case of “YHPF [short linear Ang II derivative of Silva et al]”, the “Activity against erythrocyte invasion by P. falciparum, linear peptides” value with Plasmodium falciparum [1] is listed as ~ 50%. Moreover, in series [2], the “Antiplasmodial activity against P. gallinaceum sporozoites, linear peptides” value is 89%.

Turning to “EDRVOYIHPF (sidechain bridge or staple) [lactam bridge Ang II analog of Torres et al]”, the “Antiplasmodial activity relative to Ang II (in words)” value in the series on Plasmodium is on record as “maintained the antiplasmodial activity of Ang II”.

With “CVIPFC (disulfide 1-6 (inferred)) [Peptide 8]”, the “Antiplasmodial activity vs P. falciparum (new ring formation%)” value in the series on Plasmodium falciparum [3] worked out at 3.5%.

For “VIPF [short linear Ang II derivative of Silva et al]”, the “Activity against erythrocyte invasion by P. falciparum, linear peptides” value with Plasmodium falciparum [1] is listed as ~ 50%. Moreover, the “Antiplasmodial activity against P. gallinaceum sporozoites, linear peptides” value in series [2] is 94%.

As for “DRDVKYIHPF (also: sidechain bridge or staple (positions not given here)) [VC-5, restricted (lactam bridge) Ang II analog of Maciel et al]”, in the series with Plasmodium, the “Biological activity (antiplasmodial)” value is given as 78%.

In the case of “EDRKVYIHPF (also: sidechain bridge or staple (positions not given here)) [lactam bridge Ang II analog of Torres et al]”, in the series on Plasmodium, the “Antiplasmodial activity relative to Ang II (in words)” value was “maintained the antiplasmodial activity of Ang II”.

For the compound “DDRKVYIHPF [VC-4, linear Ang II analog of Maciel et al]”, the “Biological activity (antiplasmodial)” value with Plasmodium is given as 64%.

“DRVYHIPF [linear Ang II derivative of Silva et al., linear counterpart of peptide 2]”: the “Antiplasmodial activity against P. gallinaceum sporozoites, linear peptides” value in series [2] is given as 94%.

As to `C[C@@H]1CC[C@@]2(OC1)O[C@H]1[C@@H](O)[C@H]3[C@@H]4CC[C@H]5C[C@@H](O[C@@H]6O[C@H](CO)[C@H](O[C@@H]7O[C@H](CO)[C@@H](O)[C@H](O[C@@H]8OC[C@@H](O)[C@H](O)[C@H]8O)[C@H]7O[C@@H]7O[C@H](CO)[C@H](O)[C@H](O[C@@H]8O[C@H](CO)[C@@H](O)[C@H](O)[C@H]8O)[C@H]7O)[C@H](O)[C@H]6O)[C@H](O)C[C@]5(C)[C@H]4CC[C@]3(C)[C@H]1[C@@H]2C` [digitonin], the “Lysis of parasite membranes by the positive control” value in series [4] amounted to 100%.

As to “CDRVCYIHPF (disulfide 1-5 (inferred)) [S-S restricted Ang II analog of Torres et al]”, in series [2] (ref 7 (Torres et al.)), the “Antiplasmodial activity vs sporozoites of P. gallinaceum, S-S restricted analog” value is on record as 76%.

Regarding `CC[C@H](C)[C@@H]1NC(=O)[C@H](Cc2c[nH]cn2)NC(=O)[C@H](Cc2ccc(O)cc2)NC(=O)[C@H](C(C)C)NC(=O)[C@H](CCCNC(=N)N)NC(=O)[C@H](CC(=O)O)NC(=O)[C@@H](N)CSSC[C@@H](C(=O)O)NC(=O)[C@H](Cc2ccccc2)NC(=O)[C@@H]2CCCN2C1=O` [Peptide 2] (H-CDRVYHIPFC-OH; disulfide 1-10), in the series on human red blood cells, the “Hemolytic effect (in words)” value is “did not present hemolytic effects” and the “Hemolysis of red blood cells” value is below 6%. Moreover, the “Contractile response / vasoconstriction (in words)” value with stomach fundus is “complete suppression of vasoconstriction”.

Regarding `CC[C@H](C)[C@@H]1NC(=O)[C@H](Cc2ccc(O)cc2)NC(=O)[C@H](C(C)C)NC(=O)[C@H](CCCNC(=N)N)NC(=O)[C@H](CC(=O)O)NC(=O)[C@@H](N)CSSC[C@@H](C(=O)O)NC(=O)[C@H](Cc2ccccc2)NC(=O)[C@@H]2CCCN2C(=O)[C@H](Cc2c[nH]cn2)NC1=O` [Peptide 1] (H-CDRVYIHPFC-OH; disulfide 1-10), in the series on human red blood cells, the “Hemolytic effect (in words)” value is recorded as “did not present hemolytic effects” and the “Hemolysis of red blood cells” value is below 6%. In the series with stomach fundus, the “Contractile response / vasoconstriction (in words)” value is on record as “complete suppression of vasoconstriction”.
